Experimental data reported in patent US4329347A, “Cardiotonic and antithrombotic sulfur-containing derivatives of carbostyril” (Boehringer Ingelheim GmbH, priority 1978, dated 1982).
Read-outs that look alike come from different tables or passages of the source.

How the values were obtained:
[1] = test system: thrombocyte aggregation in platelet-rich plasma of healthy human donors; assay: Thrombocyte aggregation inhibiting activity by the method of Born and Cross (platelet-rich plasma); assay type: cell-based; details: optical density
Method: 1. Determination of the thrombocyte aggregation inhibiting activity by the method of Born and Cross [J. Physiol. 170, 397 (1964)]:
The thrombocyte aggregation was measured in the platelet-rich plasma of healthy human donors. The decrease in optical density was measured and recorded photometrically after the addition of adenosine diphosphate or collagen. From the angle of inclination of the density curve, the rate of aggregation was estimated (Vmax). The optical density was taken as the point on the curve where the most light was transmitted (O.D.).
The EC50 values in the tables indicate the optical density.
Small doses of collagen were chosen, but sufficient to give irreversible aggregation. To provoke maximum aggregation, about 0.01 ml of the collagen solution was added to 1 ml of platelet-rich plasma. (Commercial collagen of Hormonchemie, Munich). The adenosine diphosphate (ADP) doses were chosen to give only the first phase of the BORN curve. The necessary amount of ADP was about 1×10^-6 mol/l. Commercial ADP of Boehringer Mannheim was used.
The substance dose which produced a 50% inhibition of the thrombozytes aggregation (EC50) was determined graphically.

[2] = test system: conscious mice; assay: Prolongation of the bleeding time (mouse tail); assay type: in vivo; details: po, 10 mg/kg orally, after 1 hour, compared to control group, read-out: Prolongation of the bleeding time in % after one hour
Method: The function of the thrombocytes can be determined by measuring the bleeding time. The normal bleeding time in human beings is in the range of 1 to 3 minutes and needs intact thrombozytes in a sufficient number. If the number of thrombocytes is normal and the bleeding time is prolonged, this signifies a disturbed function of the thrombocytes. This is found in some congenital defects of thrombocyte function (V. Willebrand's disease, for example). If, on the other hand it is the aim to prevent spontaneous aggregation of the thrombocytes and occlusion in the arterial system by antithrombotic drugs, the bleeding time should be prolonged as a consequence. Therefore, using antithrombotic substances, a prolongation of the bleeding time is expected. If the plasma coagulation system is not influenced by such a medicine, coagulation tests will give a normal result.
To measure the bleeding time, 10 mg/kg of the test compound is administered orally to conscious mice. After 1 hour, 0.5 mm of the tip of the mousetail is cut off and droplets of blood are gently removed with filter paper every 30 second. The number of drops of blood give a measure for the bleeding time (5 animals/experiment).
The numbers in the following table represent the prolongation in % compared to the control group.

[3] = test system: phosphodiesterase (PDE), supernatant of human blood platelets; assay: PDE inhibition (3H-cAMP hydrolysis); assay type: biochemical; details: human blood platelet PDE, 1 μmol/liter 3H-cAMP, pH 7.4, 15 minutes, 37° C.
Method: cAMP is hydrolysed to AMP by phosphodiesterase (PDE) from various sources, including blood platelets. This hydrolysis is inhibited by PDE inhibitors according to the concentration.
The phosphodiesterase used was the 10,000×g supernatant of human blood platelets which had been frozen with water and thawed out again.
An amount of 0.3 ml of a mixture which contained 0.1 mole/liter of trihydroxy-aminomethane (pH 7.4), 3 mmole/liter of magnesium chloride, 1 mmole/liter of AMP, 1 μmol/liter of ^3 H-cAMP (specific activity about 10 MBq/μmol), PDE as well as the substance to be tested and water for the control were incubated for 15 minutes at 37° C.
The incubation was stopped by the addition of 0.5 ml of zinc sulfate (0.266 mole/liter) and 0.5 ml of barium hydroxide (0.266 mole/liter), the precipitate was centrifuged and the activity remaining in the supernatant of the unreacted ^3 H-cAMP was determined. From a comparison of the substance preparations and the control preparations, the concentration for a 50% inhibiting activity (IC50) of the respective substance was calculated.

[4] = test system: mice; assay: Acute toxicity, oral; assay type: in vivo; details: single oral dose of 1,000 mg/kg, 14 days observation
Method: (§1) The acute toxicity of the test compounds was determined on groups of 10 mice each after oral administration of a single dose of 1,000 mg/kg (observation time: 14 days).

[5] = Acute toxicity, oral; assay type: in vivo; details: mouse, in vivo; mice, single oral dose, 14 days observation; read-out: Acute Toxicity per os
Method: as §1

[6] = test system: Platelet Thromboses in the Rat; assay: Influence on platelet thromboses in the rat (electrical irritation of a vein); assay type: in vivo; details: male rats, five animals per dose, 20 minutes observation, vs. untreated group; dose not given
Method: Literature: H. Poliwoda, J. Lilli, G. Hagemann, D. Schyma: Z. ges. exp. Med., 145, 252 (1968)
Male rats (body weight between 70 and 90 grams) received an intraperitoneal Nembutal anesthesia (dose: 50 to 60 mg/kg). To avoid hypothermia, they were positioned on a heated test table (about 37° C.). The respiratory passage was held free by insertion of a tracheal cannula.
After a transverse abdominal incision was made, an intestinal loop was exposed and fixed, and a vein, with a diameter of about 300 μ was prepared. A monopolar platinum electrode embedded in glass and having a tip diameter of about 100μ was applied to the vein as an irritating cathode. The indifferent electrode was applied to the same vessel opposite the cathode. The irritation was provoked by 150 volts of direct current for a period of 100 milliseconds. After the irritation, the area of observation was continuously rinsed with warm (37° C.) physiological salt solution.
The formation and growth of the thrombosis was followed under a binocular microscope over a time period of 20 minutes. During the entire period of observation, the percentage of the vessel volume closed by the thrombosis was estimated at different time intervals.
Five animals per dose were used, and the results were averaged.
In the test compound experiments, the average size of the thrombosis in the treated animal group was compared with that of an untreated animal group. The result was given as "percentage reduction of the average thrombosis size." The following table contains the values obtained.

[7] = ADP-induced (about 1×10^-6 mol/l), read-out: EC50 (50% inhibition of thrombocyte aggregation), ADP
[8] = collagen-induced, read-out: EC50 (50% inhibition of thrombocyte aggregation), Collagen

| SMILES | EC50 [1, 7] [nM] | EC50 [1, 8] [nM] | change in vivo at 10 mg/kg [2] [%] | IC50 [3] [nM] | animals died (acute toxicity per os) [4] | LD50 at 336 h [5] [mg/kg] | Percentage Reduction of the Average Thrombosis Size [6] [%] |
| --- | --- | --- | --- | --- | --- | --- | --- |
| O=C1CCc2cc(OCCCC[S+]([O-])C3CCCCC3)ccc2N1 (stereo not drawn) [K, 6-(4-Cyclohexylsulfinyl-butoxy)-3,4-dihydro-carbostyril] | 12000 | 4500 | 12 | 2500 | 0 out of 10 animals | > 1000 | – |
| O=c1ccc2cc(OCCCC[S+]([O-])c3ccc(Cl)c(Cl)c3)ccc2[nH]1 (stereo not drawn) [P, 6-[4-(3,4-Dichlorophenyl-sulfinyl)-butoxy]-carbostyril] | 1800 | 200 | 12 | 220 | 0 out of 10 animals | > 1000 | 15 |
| O=c1ccc2c(Br)c(OCCCC[S+]([O-])c3ccccc3)ccc2[nH]1 (stereo not drawn) [Y, 5-Bromo-6-(4-phenylsulfinyl-butoxy)-carbostyril] | – | – | – | 100 | – | – | – |
| CC(C)(C)c1cc([S+]([O-])CCCCOc2ccc3[nH]c(=O)ccc3c2)cc(C(C)(C)C)c1O (stereo not drawn) [O, 6-[4-(4-Hydroxy-3,5-di-tert. butylphenyl-sulfinyl)-butoxy]-carbostyril] | 500 | 200 | 73 | 79 | 0 out of 10 animals | > 1000 | 17 |
| O=C1CCc2cc(OCCCC[S+]([O-])Cc3ccccc3)ccc2N1 (stereo not drawn) [H, 6-(4-Benzylsulfinyl-butoxy)-3,4-dihydro-carbostyril] | 14000 | 2500 | 29 | 1600 | 0 out of 10 animals | > 1000 | – |
| O=c1ccc2cc(OCCCC[S+]([O-])c3ccc4ccccc4n3)ccc2[nH]1 (stereo not drawn) [W, 6-[4-(2-Quinolylsulfinyl)-butoxy]-carbostyril] | – | – | – | 140 | – | – | – |
| CN(C(=O)C[S+]([O-])CCOc1ccc2[nH]c(=O)ccc2c1)C1CCCCC1 (stereo not drawn) [Z, 6-[2-(N-Methyl-N-cyclohexyl-carbamidomethyl-sulfinyl)-ethoxy]-carbostyril] | – | – | – | 500 | – | – | – |
| Cc1cc(=O)[nH]c2ccc(OCCCC[S+]([O-])c3ccccn3)cc12 (stereo not drawn) [KK, 4-Methyl-6-[4-(2-pyridylsulfinyl)-butoxy]-carbostyril] | – | – | – | – | – | – | 17 |
| O=C1CCc2cccc(OCCCCSc3ccccc3)c2N1 [II, 8-(4-Phenylmercapto-butoxy)-3,4-dihydro-carbostyril] | – | – | – | – | – | – | 4 |
| O=C1CCc2cc(OCCCC[S+]([O-])c3ccc(C4CCCCC4)cc3)ccc2N1 (stereo not drawn) [CC, 6-[4-(4-Cyclohexylphenylsulfinyl)-butoxy]-3,4-dihydro-carbostyril] | – | – | – | 1600 | – | – | – |
| O=c1ccc2cc(OCCCC[S+]([O-])c3ccc(C4CCCCC4)cc3)ccc2[nH]1 (stereo not drawn) [DD, 6-[4-(4-Cyclohexylphenylsulfinyl)-butoxy]-carbostyril] | – | – | – | 40 | – | – | 11 |
| O=c1ccc2cc(OCCCC[S+]([O-])c3ccccn3)ccc2[nH]1 (stereo not drawn) [JJ, 6-[4-(2-Pyridylsulfinyl)-butoxy]-carbostyril] | – | – | – | – | – | – | 29 |
| CC(C)(C)[S+]([O-])CCCCOc1ccc2c(c1)CCC(=O)N2 (stereo not drawn) [HH, 6-(4-tert.Butylsulfinyl-butoxy)-3,4-dihydrocarbostyril] | – | – | – | – | – | – | 19 |
| CC(C)(C)c1ccc([S+]([O-])CCCCOc2ccc3[nH]c(=O)ccc3c2)cc1 (stereo not drawn) [EE, 6-[4-(4-tert.-Butylphenylsulfinyl)-butoxy]-carbostyril] | – | – | – | 30 | – | – | – |
| O=C1CCc2cc(OCCCCSc3ccccn3)ccc2N1 [D, 6-[4-(2-Pyridyl-mercapto)-butoxy]-3,4-dihydro-carbostyril] | > 100000 | 45000 | 76 | 1600 | 0 out of 10 animals | > 1000 | – |
| O=C1CCc2cc(OCCCCS(=O)(=O)c3ccc(Cl)c(Cl)c3)ccc2N1 [R, 6-[4-(3,4-Dichlorophenyl-sulfonyl)-butoxy]-3,4-dihydro-carbostyril] | 25000 | 1500 | 30 | 1800 | 0 out of 10 animals | > 1000 | – |
| O=C1CCc2cc(OCCCCSc3ccccc3)ccc2N1 [A, 6-(4-Phenylmercapto-butoxy)-3,4-dihydro-carbostyril] | > 100000 | 50000 | 145 | 780 | 0 out of 10 animals | > 1000 | – |
| O=c1ccc2cc(OCCCC[S+]([O-])c3ccccc3)ccc2[nH]1 (stereo not drawn) [N, 6-(4-Phenylsulfinyl-butoxy)-carbostyril] | 3000 | 600 | – | 470 | – | – | 24 |
| Nc1c(Br)cc([S+]([O-])CCCCOc2ccc3c(c2)CCC(=O)N3)cc1Br (stereo not drawn) [AA, 6-[4-(3,5-Dibromo-4-aminophenylsulfinyl)-butoxy]-3,4-dihydrocarbostyril] | – | – | – | 250 | – | – | – |
| O=C1CCc2cc(OCC[S+]([O-])c3ccccc3)ccc2N1 (stereo not drawn) [G, 6-(2-Phenylsulfinyl-ethoxy)-3,4-dihydro-carbostyril] | 17000 | 3500 | 5 | 3400 | 0 out of 10 animals | > 1000 | – |
| O=c1ccc2cc(OCCCC[S+]([O-])C3CCCCC3)ccc2[nH]1 (stereo not drawn) [X, 6-(4-Cyclohexylsulfinyl-butoxy)-carbostyril] | – | – | – | 700 | – | – | – |
| Nc1c(Br)cc([S+]([O-])CCCCOc2ccc3[nH]c(=O)ccc3c2)cc1Br (stereo not drawn) [BB, 6-[4-(3,5-Dibromo-4-aminophenylsulfinyl)-butoxy]-carbostyril] | – | – | – | 50 | – | – | – |
| O=c1ccc2cc(OCCCC[S+]([O-])c3ccc(-c4ccccc4)cc3)ccc2[nH]1 (stereo not drawn) [V, 6-[4-(4-Biphenylylsulfinyl)-butoxy]-carbostyril] | – | – | – | 120 | – | – | – |
